Data from article PMC6440977, “Nucleoside analogue activators of cyclic AMP-independent protein kinase A of Trypanosoma” (Nature Communications, 2019).
Several values for one entry are separate records, joined by “and”; a condition that tells them apart may be missing. Identical values can stand only once. Like-named read-outs stand apart in the source and are kept apart here.

Columns and labels:
T. brucei PKA = T. brucei PKA (Trypanosoma brucei brucei, UniProt Q9GU80); test: In vivo PKA reporter assay (VASP Ser-157 phosphorylation, western blot); assay type: cell-based;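 also: T. brucei cells expressing human VASP as heterologous PKA substrate, compound exposure at 37 °C, western blot of phospho (50 kDa) versus unphosphorylated (46 kDa) VASP band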
[1] = system: T. brucei ∆pkar/∆pkar (pkar KO) cells; test: microbe, parasite or virus in culture; assay type: cell-based, Trypanosoma brucei; settings: Trypanosoma brucei
[2] = system: T. brucei phosphoproteome; test: Quantitative phosphoproteomics; assay type: cell-based, Trypanosoma brucei
Procedure: For each sample, 6 × 10^8 T. brucei cells treated or not with 8 µM 7-cyano-7-deazainosine for 15 min were lysed in 300 µl 4% (w/v) sodium deoxycholate, 0.1 M Tris, pH 8.5 for 5 min at 95 °C (according to the protocol of Humphrey et al.[78]). Samples were sonicated using a Bioruptor (Diagenode) (high power, two cycles of 10 min each, 30 s on/off). Protein concentration was determined by BCA protein assay and samples were adjusted to equal concentrations. Sample preparation and mass spectrometry were exactly carried out as described by Humphrey et al.[78]. MaxQuant 1.5.2.8[79] was used to identify proteins and quantify by LFQ with the following parameters: Database, TriTrypDB-39_TbruceiTREU927_AnnotatedProteins; MS tol, 10 ppm; MS/MS tol, 0.5 Da; Peptide FDR, 0.1; Protein FDR, 0.01 Min. peptide Length, 5; Variable modifications, Oxidation (M), Phosphorylation (STY); Fixed modifications, Carbamidomethyl (C); Peptides for protein quantitation, razor and unique; Min. peptides, 1; Min. ratio count, 2. For proteomic analysis, identified proteins were considered as statistically significant with FDR ≤ 0.05 and s0 = 1 (two-sided Student’s T-test adjusted for multiple comparisons by Benjamini–Hochberg correction, Perseus[80]). […] The mass spectrometry phosphoproteomics data have been deposited to the ProteomeExchange Consortium via the PRIDE partner repository (https://www.ebi.ac.uk/pride/archive) with the dataset identifier PXD012245. GO enrichment analysis was performed in TriTrypDB with default settings and visualized in Revigo (http://revigo.irb.hr). The motif discovery tool MoMo (using the motif-x algorithm) implemented in the MEME suite (http://meme-suite.org/) was used for unbiased motif discovery in the phosphoproteome dataset with the T. brucei TriTrypDB-40_TbruceiTREU927 protein database as background. Enriched sequence logos were visualized using CLC Main Workbench 7 (https://www.qiagenbioinformatics.com/).

metacaspase 4 (MCA4) = assay type: cell-based, Trypanosoma brucei; settings: for MCA4 counts / MCA4 normalized / MCA4 fold change: 4 µM; for MCA4 normalized: normalized to PFR-A/C; for MCA4 fold change: untreated WT set to 1
PKAC1/2 = assay type: cell-based, Trypanosoma brucei; settings: for PKAC1/2 Western quantification: normalized to PFR, WT 0h set to 1, individual replicates; for PKAC1/2 counts / PKAC1/2 normalized / PKAC1/2 fold change: 4 µM; for PKAC1/2 normalized: normalized to PFR-A/C; for PKAC1/2 fold change: untreated WT set to 1
PKAR = test: Western blot quantification of protein abundance, PKAR; assay type: cell-based, Trypanosoma brucei; settings: WT cells, normalized to PFR, WT 0h set to 1, individual replicates
From the text: Replicate 1 Replicate 2 Replicate 3 PKAR
WT pkar KOWT pkar KO pkar WTKO1.0PKAC1/2 […]
(a) Samples prepared for quantitative proteome analysis: PKAR and PKAC1/2 protein levels (top Western panels, red) and RXXS*/T* phos-phorylation (bottom Western panels, phospho-specific anti-RXXS*/T*, red) are quantified as summarized in the column charts next to the Western blots. The scanned values were normalized to the loading control (PFR-A/C, green) and the untreated wild type sample was set to 1. Wild type (WT) and ∆pkar/∆pkar (pkar KO) cells were treated with 7-CN-7-C-Ino (Ino) for the indicated time (PKAR/PKAC1 expression) or for 10 min (RXXS*/T* phosphorylation). Error bars represent SD of three independent experiments.
>1.5 fold (vertical dashed lines) with a p-value of <0.05 (Welch’s t-test, two-sided) are labeled as blue dots with their TriTrypDB IDs.
Source data are provided as a Source Data file.
(also on this page, place not known: WT -Log10 WT6 -Log KO6 2 4 KO -1 / KO0 -Log10 p-value KO12 / KO0 2 4 10 WT (b) p-value p-value 2 4 -Log10 p-value / WT0 -1 0 1 WT12 / WT0 Fold expression 0 0 WT KO 1.0 PKAC1/2 WT pkar KO + - 0 1 2 4 Fold RXXS/T phosphorylation 11) […]
For Western blot analysis14, the primary antibodies anti-PKAR7 (1:500), anti - […]
(ThermoFisher, catalogue number A27042, 1:5000) were used for detection using the OdysseyTM IR fluorescence scanning system. […]

[3] = treated (Act) vs control (Crtl), significant, FDR ≤ 0.05, s0=2, 4 replicates
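For PKAC1/2 Western quantification in this document: trypanosoma brucei cells, PKAC1/2 signal from western blots read on an infrared fluorescence scanning system.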
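For PKAC1/2 counts in this document: trypanosoma brucei cells, PKAC1/2 signal from western blots read on an infrared fluorescence scanning system.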
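For PKAC1/2 fold change in this document: trypanosoma brucei cells, PKAC1/2 signal from western blots read on an infrared fluorescence scanning system.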
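For PKAC1/2 normalized in this document: trypanosoma brucei cells, PKAC1/2 signal from western blots read on an infrared fluorescence scanning system.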

Sequence of T. brucei PKA (Q38DS1 entry or part of it): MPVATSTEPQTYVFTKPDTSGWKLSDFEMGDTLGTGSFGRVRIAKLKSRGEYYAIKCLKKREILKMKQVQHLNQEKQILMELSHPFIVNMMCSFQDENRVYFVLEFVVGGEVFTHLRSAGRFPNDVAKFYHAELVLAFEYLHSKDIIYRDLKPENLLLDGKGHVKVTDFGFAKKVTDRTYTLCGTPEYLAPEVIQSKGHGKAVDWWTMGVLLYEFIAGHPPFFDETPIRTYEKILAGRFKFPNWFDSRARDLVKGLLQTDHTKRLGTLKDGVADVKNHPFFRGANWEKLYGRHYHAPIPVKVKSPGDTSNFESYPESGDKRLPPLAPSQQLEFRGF
Sequence of T. brucei PKA (Q38DR5 entry or part of it, further chain): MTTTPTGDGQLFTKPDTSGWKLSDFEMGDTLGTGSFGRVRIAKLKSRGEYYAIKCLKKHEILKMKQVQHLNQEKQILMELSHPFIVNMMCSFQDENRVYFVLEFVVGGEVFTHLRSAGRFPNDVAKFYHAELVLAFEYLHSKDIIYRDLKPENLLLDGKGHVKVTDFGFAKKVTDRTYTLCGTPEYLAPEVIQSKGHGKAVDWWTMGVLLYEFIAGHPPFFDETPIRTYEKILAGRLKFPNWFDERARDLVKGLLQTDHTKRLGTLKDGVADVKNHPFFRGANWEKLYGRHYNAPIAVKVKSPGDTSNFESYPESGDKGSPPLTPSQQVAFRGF
Sequence of T. brucei PKA (Q9GU80 entry or part of it): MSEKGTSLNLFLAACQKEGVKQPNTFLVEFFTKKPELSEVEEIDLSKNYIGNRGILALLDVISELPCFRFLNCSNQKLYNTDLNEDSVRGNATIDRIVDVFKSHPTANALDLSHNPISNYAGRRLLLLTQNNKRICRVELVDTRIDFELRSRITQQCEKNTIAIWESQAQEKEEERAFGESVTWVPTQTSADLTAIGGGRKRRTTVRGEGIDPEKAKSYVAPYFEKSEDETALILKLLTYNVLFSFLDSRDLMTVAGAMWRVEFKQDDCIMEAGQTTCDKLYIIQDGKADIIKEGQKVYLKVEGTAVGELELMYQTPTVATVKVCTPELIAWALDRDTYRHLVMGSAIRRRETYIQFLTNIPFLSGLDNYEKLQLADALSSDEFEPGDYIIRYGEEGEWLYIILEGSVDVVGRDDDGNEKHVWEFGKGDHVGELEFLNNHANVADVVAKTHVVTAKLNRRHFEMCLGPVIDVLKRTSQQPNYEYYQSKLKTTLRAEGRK

## N#Cc1cn([C@@H]2O[C@H](CO)[C@@H](O)[C@H]2O)c2ncnc(O)c12 [7-CN-7-C-Ino, 7-Cyano-7-deazainosine]
T. brucei PKA; 4 µM, 15 min
  VASP phosphorylation in PKAC3 deletion + PKAC1/2 RNAi cell line, in words: undetectable
T. brucei PKA; read-out: EC50 in vivo PKA assay, VASP reporter, 15 min treatment, mean ± SD
  EC50: 0.838 ± 0.139 µM
[1]; 72 h, read-out: IC50 growth pkar KO
  IC50: ≥ 125 µM
[1]; read-out: EC50, Alamar blue cell viability assay, KO, individual replicate results, pkar KO cells, fit ambiguous, bound given in µM
  EC50: > 125 µM
[2]; 8 µM, 15 min
  downregulated phosphosites (number): 84
  downregulated phosphosites containing PKA motifs: 19%
  upregulated phosphosites containing PKA motifs: 77%
[2]; 8 µM, 15 min, FDR ≤ 0.05, s0 = 2
  significantly upregulated phosphosites (number): 642
[2]; [3]
  Difference, phosphopeptide Tb11.v5.1036.1 gamma-tubulin complex subunit, putative, S120: 3.988
  Difference, phosphopeptide Tb927.10.630 hypothetical protein, conserved, S331: 2.868
  Difference, phosphopeptide Tb927.10.8410 hypothetical protein, conserved, S234: 2.478
Metacaspase 4 (MCA4); KO cells + Ino, normalized to PFR, WT set to 1, individual replicates, protein not given
  Western quantification, KO + Ino: 0.3769 and 0.643 and 0.8892
Metacaspase 4 (MCA4); WT cells + Ino, normalized to PFR, WT set to 1, individual replicates, protein not given
  Western quantification, WT + Ino: 3.707 and 4.121 and 2.558
Metacaspase 4 (MCA4); WT, 12 h
  MCA4 counts: 9.21
  MCA4 normalized: 5.616
  MCA4 fold change: 0.3804
Metacaspase 4 (MCA4); WT, 18 h
  MCA4 counts: 7.41
  MCA4 normalized: 5.37
  MCA4 fold change: 0.3637
Metacaspase 4 (MCA4); WT, 24 h
  MCA4 counts: 7.18
  MCA4 normalized: 4.603
  MCA4 fold change: 0.3117
Metacaspase 4 (MCA4); pkar KO, 12 h
  MCA4 counts: 8.83
  MCA4 normalized: 0.3995
  MCA4 fold change: 0.8235
Metacaspase 4 (MCA4); pkar KO, 18 h
  MCA4 counts: 9.5
  MCA4 normalized: 0.5278
  MCA4 fold change: 1.088
Metacaspase 4 (MCA4); pkar KO, 24 h
  MCA4 counts: 10.63
  MCA4 normalized: 0.3562
  MCA4 fold change: 0.7342
Metacaspase 4 (MCA4); wild type, 12 h post induction
  MCA4 abundance, in words: decreased
PKAC1/2; R KO cells, 6 h treatment
  PKAC1/2 Western quantification: 0.4425 and 0.1597 and 0.1981
PKAC1/2; R KO cells, 12 h treatment
  PKAC1/2 Western quantification: 0.2802 and 0.2063 and 0.2365
PKAC1/2; WT cells, 6 h treatment
  PKAC1/2 Western quantification: 0.4685 and 0.4579 and 0.5439
PKAC1/2; WT cells, 12 h treatment
  PKAC1/2 Western quantification: 0.3997 and 0.2606 and 0.4376
PKAC1/2; WT, 12 h
  PKAC1/2 counts: 99.53
  PKAC1/2 normalized: 60.689
  PKAC1/2 fold change: 0.4385
PKAC1/2; WT, 18 h
  PKAC1/2 counts: 76
  PKAC1/2 normalized: 55.0725
  PKAC1/2 fold change: 0.3979
PKAC1/2; WT, 24 h
  PKAC1/2 counts: 86.74
  PKAC1/2 normalized: 55.6026
  PKAC1/2 fold change: 0.4018
PKAC1/2; pkar KO, 12 h
  PKAC1/2 counts: 70.66
  PKAC1/2 normalized: 3.197
  PKAC1/2 fold change: 0.1969
PKAC1/2; pkar KO, 18 h
  PKAC1/2 counts: 69.65
  PKAC1/2 normalized: 3.869
  PKAC1/2 fold change: 0.2383
PKAC1/2; pkar KO, 24 h
  PKAC1/2 counts: 95.11
  PKAC1/2 normalized: 3.187
  PKAC1/2 fold change: 0.1963
PKAR; 6 h treatment
  PKAR Western quantification: 0.8653 and 0.7031 and 1.455
PKAR; 12 h treatment
  PKAR Western quantification: 0.7135 and 0.7185 and 1.457
